Results from ChEMBL document CHEMBL1133894, “Design and synthesis of a highly selective EP4-receptor agonist. Part 2: 5-thia and 9beta-haloPG derivatives with improved stability” (Bioorg Med Chem Lett, 2001).

Tests used:
[1] = molecular target: Prostaglandin E2 receptor EP2 subtype (Mus musculus, UniProt Q62053); assay: Affinity for mouse Prostanoid EP2 receptor expressed in CHO cells; type: cell-based
[2] = molecular target: T1, Prostaglandin E2 receptor EP4 subtype (Mus musculus, UniProt P32240); assay: Affinity for mouse Prostanoid EP4 receptor expressed in CHO cells; type: cell-based
T1 sequence (P32240 whole entry): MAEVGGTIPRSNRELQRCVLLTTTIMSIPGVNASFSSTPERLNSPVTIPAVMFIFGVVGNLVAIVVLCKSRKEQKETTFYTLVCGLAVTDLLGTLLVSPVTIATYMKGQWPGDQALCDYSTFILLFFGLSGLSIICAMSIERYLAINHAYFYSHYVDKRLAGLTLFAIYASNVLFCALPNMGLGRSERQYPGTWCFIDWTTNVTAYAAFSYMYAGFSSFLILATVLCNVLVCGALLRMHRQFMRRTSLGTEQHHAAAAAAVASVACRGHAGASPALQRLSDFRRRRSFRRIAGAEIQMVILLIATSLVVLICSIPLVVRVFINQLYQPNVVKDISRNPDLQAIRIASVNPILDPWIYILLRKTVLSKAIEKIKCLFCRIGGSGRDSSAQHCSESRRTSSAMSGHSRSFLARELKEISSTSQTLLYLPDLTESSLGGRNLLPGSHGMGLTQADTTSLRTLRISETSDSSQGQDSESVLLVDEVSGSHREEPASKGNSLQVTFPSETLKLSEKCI

Prostacyclin receptor = Prostacyclin receptor (Homo sapiens, UniProt P43119); assay: Affinity for human Prostanoid IP receptor expressed in CHO cells; type: cell-based
Sequence of Prostacyclin receptor (P43119 whole entry): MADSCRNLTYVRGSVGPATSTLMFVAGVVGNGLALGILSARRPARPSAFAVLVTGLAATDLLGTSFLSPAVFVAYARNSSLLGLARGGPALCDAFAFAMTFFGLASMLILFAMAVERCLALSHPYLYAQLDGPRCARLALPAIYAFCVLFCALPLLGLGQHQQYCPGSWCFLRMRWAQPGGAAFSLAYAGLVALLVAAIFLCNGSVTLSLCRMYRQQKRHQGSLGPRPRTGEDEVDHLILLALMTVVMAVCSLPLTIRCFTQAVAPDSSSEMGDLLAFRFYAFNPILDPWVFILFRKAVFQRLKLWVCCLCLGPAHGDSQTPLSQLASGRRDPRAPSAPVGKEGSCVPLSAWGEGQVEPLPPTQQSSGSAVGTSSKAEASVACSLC

[3] = molecular target: T1, Prostaglandin E2 receptor EP4 subtype; assay: Effective concentration for increased intracellular c-AMP production by mouse Prostanoid EP4 receptor; type: functional, cell-based
[4] = molecular target: T2, Prostaglandin E2 receptor EP3 subtype (Mus musculus, UniProt P30557); assay: Affinity for mouse Prostanoid EP3 receptor expressed in CHO cells; type: cell-based
T2 sequence (P30557 whole entry): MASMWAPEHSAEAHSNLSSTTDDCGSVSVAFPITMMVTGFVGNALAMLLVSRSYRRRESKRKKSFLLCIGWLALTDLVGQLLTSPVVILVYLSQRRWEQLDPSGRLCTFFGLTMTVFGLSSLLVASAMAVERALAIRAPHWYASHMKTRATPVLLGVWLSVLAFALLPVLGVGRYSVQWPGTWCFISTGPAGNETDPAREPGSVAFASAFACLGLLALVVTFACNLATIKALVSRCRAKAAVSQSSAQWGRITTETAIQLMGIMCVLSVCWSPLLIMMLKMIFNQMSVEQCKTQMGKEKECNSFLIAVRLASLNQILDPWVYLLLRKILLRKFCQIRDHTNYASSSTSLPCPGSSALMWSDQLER

[5] = molecular target: T3, Prostaglandin E2 receptor EP1 subtype (Mus musculus, UniProt P35375); assay: Affinity for mouse Prostanoid EP1 receptor expressed in CHO cells; type: cell-based
T3 sequence (P35375 whole entry): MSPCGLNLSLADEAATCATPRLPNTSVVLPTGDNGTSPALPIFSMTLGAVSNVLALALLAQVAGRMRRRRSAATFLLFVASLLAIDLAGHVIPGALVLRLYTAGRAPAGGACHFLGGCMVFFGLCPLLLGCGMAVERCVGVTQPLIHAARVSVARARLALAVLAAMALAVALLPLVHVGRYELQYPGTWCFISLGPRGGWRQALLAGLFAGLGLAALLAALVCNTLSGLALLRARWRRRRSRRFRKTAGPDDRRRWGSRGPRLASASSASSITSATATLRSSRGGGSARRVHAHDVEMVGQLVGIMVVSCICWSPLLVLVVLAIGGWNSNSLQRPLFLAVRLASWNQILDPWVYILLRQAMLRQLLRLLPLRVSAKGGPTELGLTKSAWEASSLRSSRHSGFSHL

Rattus norvegicus [6] = assay: Suppression of production of plasma TNF-alpha after intravenous infusion of 10, 30, 100 and 300 ng/kg/min; significant; type: functional, organism-based
Rattus norvegicus [7] = species: Rattus norvegicus; assay: Stimulation of Uterine motility which mediates the EP3-receptor in rats; type: functional

Sequence of Prostaglandin E2 receptor EP2 subtype (Q62053 whole entry): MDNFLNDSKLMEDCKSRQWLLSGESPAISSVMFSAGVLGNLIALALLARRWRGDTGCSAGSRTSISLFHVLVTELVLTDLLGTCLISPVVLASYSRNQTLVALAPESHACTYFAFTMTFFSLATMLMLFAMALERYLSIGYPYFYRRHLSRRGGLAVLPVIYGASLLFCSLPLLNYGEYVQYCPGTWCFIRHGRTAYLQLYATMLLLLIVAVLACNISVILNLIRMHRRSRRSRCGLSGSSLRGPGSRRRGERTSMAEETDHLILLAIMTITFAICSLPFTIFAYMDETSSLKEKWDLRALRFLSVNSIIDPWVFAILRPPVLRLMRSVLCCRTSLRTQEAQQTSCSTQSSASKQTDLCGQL

| SMILES | Ki [1] | Ki [2] | Ki (Prostacyclin receptor) | EC50 [3] | Ki [4] | Ki [5] | Supression (Rattus norvegicus [6]) | ED50 (Rattus norvegicus [7]) |
| --- | --- | --- | --- | --- | --- | --- | --- | --- |
| Cc1cc(C[C@H](O)/C=C/[C@H]2[C@H](O)CC(=O)[C@@H]2CCSCCCC(=O)O)ccc1O | 7400 nM | 4.9 nM | > 10000 nM | 20 nM |  |  |  |  |
| Cc1cc(C[C@H](O)/C=C/[C@@H]2[C@@H](C/C=C/CCCC(=O)O)[C@H](Cl)C[C@H]2O)ccc1O | 290 nM | 7.7 nM | > 10000 nM | 44 nM | 2200 nM | 3100 nM |  |  |
| COCc1cccc(C[C@H](O)/C=C/[C@@H]2[C@@H](C/C=C/CCCC(=O)O)[C@H](Cl)C[C@H]2O)c1 | 12 nM | 0.5 nM | > 10000 nM | 3.3 nM | 92 nM | 980 nM |  |  |
| COCc1cccc(C[C@H](O)/C=C/[C@@H]2[C@@H](C/C=C/CCCC(=O)O)[C@H](F)C[C@H]2O)c1 | 58 nM | 3.4 nM | > 10000 nM | 14 nM | 94 nM | 1700 nM |  |  |
| CCCCC[C@H](O)/C=C/[C@H]1[C@H](O)CC(=O)[C@@H]1CCCSCCC(=O)O | 340 nM | 11 nM | 920 nM | 1000 nM | 3.7 nM | 27 nM |  |  |
| COCc1cccc(C[C@H](O)/C=C/[C@H]2[C@H](O)CC(=O)[C@@H]2CCSCCCC(=O)OC)c1 [RIVENPROST] |  |  |  |  |  |  | significant | > 300 mg/kg |
| CCCCC[C@H](O)/C=C/[C@H]1[C@H](O)CC(=O)[C@@H]1CSCCCCC(=O)O | 91 nM | 8.7 nM | 1400 nM | 1000 nM | 2 nM | 95 nM |  |  |
| COCc1cccc(C[C@H](O)/C=C/[C@@H]2[C@@H](CCCCCCC(=O)O)[C@H](Cl)C[C@H]2O)c1 | 370 nM | 2.7 nM | > 10000 nM | 160 nM | 740 nM | 5400 nM |  |  |
| CCCCC[C@H](O)/C=C/[C@H]1[C@H](O)CC(=O)[C@@H]1CCCCCCC(=O)O [ALPROSTADIL] | 22 nM | 3.1 nM | > 10000 nM | 3.6 nM |  | 6 nM |  |  |
| COCc1cccc(C[C@H](O)/C=C/[C@H]2[C@H](O)CC(=O)[C@@H]2CCSCCCC(=O)O)c1 | 620 nM | 0.7 nM | > 10000 nM | 1.6 nM | 56 nM | > 10000 nM |  |  |
| CCCCC[C@H](O)/C=C/[C@H]1[C@H](O)CC(=O)[C@@H]1CCCCSCC(=O)O | 49 nM | 2.1 nM | > 10000 nM | 46 nM | 1.2 nM | 200 nM |  |  |
| CCCCC[C@H](O)/C=C/[C@H]1[C@H](O)CC(=O)[C@@H]1CCSCCCC(=O)O | 75 nM | 0.5 nM | 750 nM | 3.6 nM | 1.9 nM | 52 nM |  |  |
| COCc1cccc(C[C@H](O)/C=C/[C@@H]2[C@@H](CCSCCCC(=O)O)[C@H](F)C[C@H]2O)c1 | 3100 nM | 32 nM | > 10000 nM | 270 nM |  |  |  |  |
